Source: patent US9315458B2, “Nitrogen-containing heterocyclic compound” (Takeda Pharmaceutical Company Limited, priority 2014, dated 2016)

How the values were obtained:
[1] = tested on: Scopolamine-induced memory deficits models; test: Novel object recognition test; assay type: in vivo, male Long-Evans rats; settings: scopolamine 0.1 mg/kg s.c., mean±standard error
Method: Novel object recognition test is comprised of two trials called the acquisition and the retention trials. Scopolamine-induced memory deficits models were used for the test, and animals used were male Long-Evans rats (7-week-old). On the day before the test, for acclimation, the rats were allowed to freely move about the test box (40×40×50 cm) for 10 minutes. On the test day, the rats were acclimated to the test room for about 1 hr prior to the test. The test compounds were orally administered to the rats in a single dose 2 hr before the acquisition trial. For induction of learning and memory deficits, scopolamine (0.1 mg/kg) was subcutaneously administered into the rats 30 min before the acquisition trial. For the acquisition trial, two identical objects (A1, A2) were placed in the test box. The rats were put in the test box for 3 min, and the duration exploring each object was measured. The retention trial was performed 4 hr after the acquisition trial. For the retention trial, the familiar object (A3) used for the acquisition trial and the novel object (B) different shape from A3 were placed in the test box. The rats were put in the test box for 3 min. The duration exploring each object in the acquisition trial and the retention trial, and the exploration rate (%) of novel object was calculated. The exploration rate (%) of novel object was expressed as (the duration exploring the novel object)/[(the duration exploring the novel object)+(the duration exploring the familiar object)]×100(%) at mean±standard error.

[2] = tested on: IP1 production in hippocampi; test: Measurement of myo-inositol 1 phosphate (IP1) in hippocampus after oral administration; assay type: in vivo, male Long-Evans rats; settings: 10 mg/kg oral, rat hippocampus, IP1/protein ratio, lithium chloride s.c.
Text: Animals used were male Long-Evans rats. They were used after acclimation for at least 1 week. Test compounds were suspended in 0.5% aqueous methylcellulose solution, and the suspension was orally administered to the rats. At a certain period of time after the oral administration, the solution prepared by dissolving lithium chloride in saline was subcutaneously administered into the rats. At a certain period of time after the subcutaneously administration, their bilateral hippocampi were isolated from the rats, and the wet weight thereof was measured. The hippocampi were homogenized with HEPES buffer, followed by centrifugation. The IP1 and protein concentrations in the supernatant were measured by IP-One HTRF assay kit (Cisbio Bioassays) and BCA protein assay kit (Thermo Scientific), respectively. The level of the IP1 production was expressed as the ratio of the concentration of IP1 to that of protein. The increase rate of the IP1 production was shown as a relative value when Vehicle administration group as 100%.

[3] = target: T1, human M1 receptor (hCHRM1) (Homo sapiens, UniProt P11229); test: Measurement of M1 receptor positive allosteric modulator (M1PAM) activity, calcium fluorescence (FLIPRtetra) with acetylcholine at EC20; assay type: cell-based; settings: for activity (%) at 10 μM: 10 μM test compound, 100% = acetylcholine 1 μM, 0% = DMSO, acetylcholine at EC20; for EC50: inflection point of concentration-dependent curve, CHO-K1 cells expressing hCHRM1, acetylcholine at EC20 (final 0.6-0.8 nM), read-out: IP value
T1 construct: expressed in transfected cells
T1 sequence (P11229 1-460): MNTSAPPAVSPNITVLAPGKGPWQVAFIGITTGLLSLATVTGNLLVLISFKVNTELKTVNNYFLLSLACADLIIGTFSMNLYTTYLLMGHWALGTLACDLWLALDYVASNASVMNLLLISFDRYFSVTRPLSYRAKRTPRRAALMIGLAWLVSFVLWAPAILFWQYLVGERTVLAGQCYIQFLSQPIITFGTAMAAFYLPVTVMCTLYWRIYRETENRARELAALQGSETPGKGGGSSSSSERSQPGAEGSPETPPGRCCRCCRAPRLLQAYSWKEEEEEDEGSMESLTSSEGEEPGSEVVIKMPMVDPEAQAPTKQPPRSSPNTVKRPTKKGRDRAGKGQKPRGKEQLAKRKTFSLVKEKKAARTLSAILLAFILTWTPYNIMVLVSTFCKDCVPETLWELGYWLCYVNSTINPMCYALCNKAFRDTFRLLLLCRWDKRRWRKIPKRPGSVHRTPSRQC
Procedure, shortened: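 CHO-K1 cells stably expressing hCHRM1, Fluo-4 AM loaded; compound added with acetylcholine at EC20 (final 0.6-0.8 nM), fluorescence read 1 min. Activity normalised to 1 μM acetylcholine (100%) and DMSO (0%); IP values taken as inflection point of the concentration-response curve.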

Structure (SMILES): Cc1ccc(Cc2cc3c(c(C)c2C)CN([C@H]2CCCC[C@@H]2O)C3=O)cn1 [Example 25, 2-((1S,2S)-2-hydroxycyclohexyl)-4,5-dimethyl-6-((6-methylpyridin-3-yl)methyl)isoindolin-1-one]
- exploration rate (%) of novel object ([1]; 10 mg/kg oral 2 hr before acquisition trial, control 62.37±3.24%, solvent-scopolamine 48.39±2.01%): 57.55±5.03%
- increase rate at 10 mg/kg (% of Vehicle) [2]: 32 % of Vehicle
- activity (%) at 10 μM [3]: 90%
- EC50 [3]: 10 nM

Structure (SMILES): Cc1c(Cc2ccc(-n3cccn3)cc2)cc2c(c1F)CN([C@H]1COCC[C@@H]1O)C2=O [Example 20, 4-fluoro-2-[(3S,4S)-4-hydroxytetrahydro-2H-pyran-3-yl]-5-methyl-6-[4-(1H-pyrazol-1-yl)benzyl]-2,3-dihydro-1H-isoindol-1-one]
- exploration rate (%) of novel object ([1]; 3 mg/kg oral 2 hr before acquisition trial, control 66.4±2.3%, solvent-scopolamine 50.4±2.4%): 61.2±3.1%
- increase rate at 10 mg/kg (% of Vehicle) [2]: 108 % of Vehicle
- activity (%) at 10 μM [3]: 109%
- EC50 [3]: 5.5 nM

Structure (SMILES): Cn1cc(-c2ccc(Cc3cc4c(cc3C3CC3)CN([C@H]3CCC[C@@H]3O)C4=O)cc2)nn1 (racemic) [Example 64, rac-5-cyclopropyl-2-(trans-2-hydroxycyclopentyl)-6-(4-(1-methyl-1H-1,2,3-triazol-4-yl)benzyl)isoindolin-1-one]
- activity (%) at 10 μM [3]: 104%
- EC50 [3]: 22 nM

Structure (SMILES): COc1ccc(Cc2cc3c(c(Cl)c2C)CN([C@H]2COCC[C@@H]2O)C3=O)cc1 [Example 24, 1,5-anhydro-2-(4-chloro-6-(4-methoxybenzyl)-5-methyl-1-oxo-1,3-dihydro-2H-isoindol-2-yl)-2,4-dideoxy-L-threo-pentitol]
- activity (%) at 10 μM [3]: 88%
- EC50 [3]: 4.3 nM

Structure (SMILES): CNC(=O)c1ccc(Cc2cc3c(c(C)c2C)CN([C@H]2CCC[C@@H]2O)C3=O)cc1F [Example 123, 2-fluoro-4-((2-((1S,2S)-2-hydroxycyclopentyl)-6,7-dimethyl-3-oxo-2,3-dihydro-1H-isoindol-5-yl)methyl)-N-methylbenzamide]
- activity (%) at 10 μM [3]: 90%
- EC50 [3]: 2.1 nM

Structure (SMILES): O=C1c2cc(Cc3ccc(-n4cccn4)cc3)c(C(F)(F)F)c(Cl)c2CN1[C@H]1CCCC[C@@H]1O (racemic) [Example 10, rac-4-chloro-2-(trans-2-hydroxycyclohexyl)-6-(4-(1H-pyrazol-1-yl)benzyl)-5-(trifluoromethyl)isoindolin-1-one]
- activity (%) at 10 μM [3]: 106%
- EC50 [3]: 66 nM

Structure (SMILES): COc1ccc(Cc2cc3c(c(C)c2C)CN([C@H]2COCC[C@@H]2O)C3=O)cc1C [Example 160, 2-[(3S,4S)-4-hydroxytetrahydro-2H-pyran-3-yl]-6-(4-methoxy-3-methylbenzyl)-4,5-dimethyl-2,3-dihydro-1H-isoindol-1-one]
- activity (%) at 10 μM [3]: 112%
- EC50 [3]: 47 nM

Structure (SMILES): Cc1c(Cc2ccc(-c3cnn(C)c3)cc2)cc2c(c1C)CN([C@H]1CCCC[C@@H]1O)C2=O (racemic) [Example 89, rac-2-(trans-2-hydroxycyclohexyl)-4,5-dimethyl-6-(4-(1-methyl-1H-pyrazol-4-yl)benzyl)isoindolin-1-one]
- activity (%) at 10 μM [3]: 94%
- EC50 [3]: 5.7 nM

Structure (SMILES): COc1ccc(Cc2cc3c(c(C)c2C)CN([C@H]2COCC[C@@H]2O)C3=O)cc1 [Example 18, 2-[(3S,4S)-4-hydroxytetrahydro-2H-pyran-3-yl]-6-(4-methoxybenzyl)-4,5-dimethyl-2,3-dihydro-1H-isoindol-1-one]
- exploration rate (%) of novel object ([1]; 3 mg/kg oral 2 hr before acquisition trial, control 63.35±1.59%, solvent-scopolamine 52.08±2.47%): 59.11±3.87%
- increase rate at 10 mg/kg (% of Vehicle) [2]: 40 % of Vehicle
- activity (%) at 10 μM [3]: 88%
- EC50 [3]: 10 nM

Structure (SMILES): Cc1cc2c(cc1Cc1ccc(-c3cn(C)nc3C)nc1)C(=O)N([C@H]1CCCC[C@@H]1O)C2 (racemic) [Example 5, rac-6-((6-(1,3-dimethyl-1H-pyrazol-4-yl)pyridin-3-yl)methyl)-2-(trans-2-hydroxycyclohexyl)-5-methylisoindolin-1-one]
- activity (%) at 10 μM [3]: 102%
- EC50 [3]: 8.2 nM
